Common to all, as to format: cell-based
The subject of assay [1] is S. aureus. In words: Dark toxicity against S. aureus, concentration study at 0 min (CFU counting). The following applies: for Staph log CFU/ml (logarithmic reduction value) / Staph μM (concentration corresponding to the logarithmic reduction): in the dark, at 0 min; for Staph log CFU/ml (logarithmic reduction value): at the concentration of the μM column; for Staph μM (concentration corresponding to the logarithmic reduction): range tested 0-10 μM. On the procedure:
(§1) 500 μM stock solutions of the samples were prepared in ultra-pure water (5% DMSO) and used at different concentrations in the biological assays.
(§2) Two bacterial strains were used for the PACT studies; S. aureus as a gram-(+) bacterium and E. coli as a gram-(−) negative bacterium. Stock cultures were grown aerobically in 6 mL of nutrient broth incubated at 37° C. on a rotary shaker (~200 rpm) to obtain bacteria cultures. The incubation was maintained until the optical density of the culture at 600 nm was determined to be between 0.6 and 0.8. The resulting bacterial solution was centrifuged to remove the broth, and bacterial cells were washed three times with PBS. The solution of the bacteria was prepared by diluting with PBS to obtain […] bacteria solutions corresponding to ~10^9 and ~10^8 colony forming units (CFU)/mL, respectively.
(§3) The bacteria/photosensitizer mixtures were incubated in an oven equipped with a shaker for 30 min in the dark at 37° C. before plating. 100 μL of solution was taken from the suspension and was immediately inoculated on agar plates to determine the activity at 0 min without treatment. The number of colonies was then counted on each plate after 18 h of incubation at 37° C. Control treatments were performed in the absence of photosensitizer. All experiments were carried out three times. The data for CFU/mL were converted to the logarithmic form.

The subject of assay [2] is MCF-7 (human breast adenocarcinoma) cells. Kind of assay: In vitro dark cytotoxicity, MCF-7 cells (anticancer studies). The following applies: MCF-7, dark; for Min. Death conc. / Cell death: 24 h; for Cell death: at the Min. Death conc. On the procedure: MCF-7 (human breast adenocarcinoma) cells were cultured in Dulbecco's modified Eagle's medium-10% fetal bovine serum (DMEM-FBS) and PSA (penicillin/streptomycin/Amphotericin B) at 37° C. in an incubator (5% CO2) in 75 cm^2 vented flasks. The cultures were grown as a monolayer. The growth cells were transferred to well plates by trypsinizing with 0.25% trypsin-EDTA. The Pc stock concentrations were prepared by separately dissolving them in DMSO (1%) and diluting in water and the Pc gradient concentration was prepared by taking known aliquots from the stock and finally made up to marked volume with supplemented media with phenol red.
It was studied from […] both in the dark. 100 μL each of the newly prepared gradient Pcs concentration of 0 μg/mL (control), 5 μg/mL, 10 μg/mL, 20 μg/mL, 40 μg/mL, 60 μg/mL 80 μg/mL, 100 μg/mL and 120 μg/mL were administered on the incubated seeded cells. The 96 well cell culture plates containing the cells and the Pcs were incubated at 37° C. and 5% CO2 in the dark for 24 h. After 24 h treatment, the wells were rinsed with 100 μL DPBS. Cell survival was expressed as percentage of control cells (cells without Pcs). Post treatment cell viability was measured using the cell proliferation […] reagent (WST-1 assay) on a Synergy 2 multi-mode microplate reader (BioTek®) at a wavelength of 450 nm according to the following equation 1.

In assay [3] the test system is E. coli. In words: Dark toxicity against E. coli, concentration study at 0 min (CFU counting). The following applies: in the dark; for Ecoli log CFU/ml (logarithmic reduction value): at the concentration of the μM column; for Ecoli μM (concentration corresponding to the logarithmic reduction): range tested 0-15 μM. The protocol:
as §1, §2, §3

As for `C[n+]1c(-c2ccc(Oc3ccc4c(c3)C3=Nc5c6ccc(Oc7ccc(-c8[nH]c9cc(F)cc(Br)c9[n+]8C)cc7)cc6c6[n]5[Co][n]5c(c7ccc(Oc8ccc(-c9[nH]c%10cc(F)cc(Br)c%10[n+]9C)cc8)cc7c5=NC5=NC(=N6)c6cc(Oc7ccc(-c8[nH]c9cc(F)cc(Br)c9[n+]8C)cc7)ccc65)=NC4=N3)cc2)[nH]c2cc(F)cc(Br)c21.[I-].[I-].[I-].[I-]` [Compound 230], in assay [1], the “Staph log CFU/ml (logarithmic reduction value)” value was found to be 9.25 log CFU/ml and the “Staph μM (concentration corresponding to the logarithmic reduction)” value turned out to be 0.5 μM. In assay [2], the “Min. Death conc.” value is 5 µM and the Cell death stood at 54.9%. Besides, in assay [3], the “Ecoli log CFU/ml (logarithmic reduction value)” value turned out to be 8.79 log CFU/ml and the “Ecoli μM (concentration corresponding to the logarithmic reduction)” value was 1 μM.
For `C[n+]1c(-c2ccc(Oc3ccc4c(c3)C3=Nc5c6ccc(Oc7ccc(-c8[nH]c9cc(F)cc(Br)c9[n+]8C)cc7)cc6c6[n]5[Zn][n]5c(c7ccc(Oc8ccc(-c9[nH]c%10cc(F)cc(Br)c%10[n+]9C)cc8)cc7c5=NC5=NC(=N6)c6cc(Oc7ccc(-c8[nH]c9cc(F)cc(Br)c9[n+]8C)cc7)ccc65)=NC4=N3)cc2)[nH]c2cc(F)cc(Br)c21.[I-].[I-].[I-].[I-]` [Compound 229], in assay [1], the “Staph log CFU/ml (logarithmic reduction value)” value worked out at 9.25 log CFU/ml and the “Staph μM (concentration corresponding to the logarithmic reduction)” value is recorded as 0.5 μM. Further, in assay [2], the “Min. Death conc.” value came to 10 µM and the Cell death was found to be 39.4%. Besides, in assay [3], the “Ecoli log CFU/ml (logarithmic reduction value)” value worked out at 8.79 log CFU/ml and the “Ecoli μM (concentration corresponding to the logarithmic reduction)” value is on record as 10 μM.
Consider “Tetrakis [4-(4-(5-bromo-1H-benzo[d]imidazol-2-yl)phenoxy phthalocyaninato] zinc(II) tetraiodide [Compound 218]”, for which, in assay [1], the “Staph log CFU/ml (logarithmic reduction value)” value is listed as 9.15 log CFU/ml and the “Staph μM (concentration corresponding to the logarithmic reduction)” value was 0.5 μM. Further, in assay [2], the “Min. Death conc.” value came out at 10 µM and the Cell death was determined as 56.6%. Besides, in assay [3], the “Ecoli log CFU/ml (logarithmic reduction value)” value turned out to be 8.78 log CFU/ml and the “Ecoli μM (concentration corresponding to the logarithmic reduction)” value turned out to be 1 μM.
Consider `C[n+]1c(-c2ccc(Oc3ccc4c(c3)C3=Nc5c6ccc(Oc7ccc(-c8[nH]c9cc(Cl)c(Cl)cc9[n+]8C)cc7)cc6c6[n]5[Cu][n]5c(c7ccc(Oc8ccc(-c9[nH]c%10cc(Cl)c(Cl)cc%10[n+]9C)cc8)cc7c5=NC5=NC(=N6)c6cc(Oc7ccc(-c8[nH]c9cc(Cl)c(Cl)cc9[n+]8C)cc7)ccc65)=NC4=N3)cc2)[nH]c2cc(Cl)c(Cl)cc21.[I-].[I-].[I-].[I-]` [Compound 209], for which, in assay [1], the “Staph log CFU/ml (logarithmic reduction value)” value was 9.31 log CFU/ml and the “Staph μM (concentration corresponding to the logarithmic reduction)” value was found to be 10 μM. Further, in assay [2], the “Min. Death conc.” value is 20 µM and the Cell death worked out at 80.4%. For the same compound, in assay [3], the “Ecoli log CFU/ml (logarithmic reduction value)” value is 8.79 log CFU/ml and the “Ecoli μM (concentration corresponding to the logarithmic reduction)” value is 2.5 μM.
As to `C[n+]1c(-c2ccc(Oc3ccc4c(c3)C3=Nc5c6ccc(Oc7ccc(-c8[nH]c9ccc(Cl)cc9[n+]8C)cc7)cc6c6[n]5[Zn][n]5c(c7ccc(Oc8ccc(-c9[nH]c%10ccc(Cl)cc%10[n+]9C)cc8)cc7c5=NC5=NC(=N6)c6cc(Oc7ccc(-c8[nH]c9ccc(Cl)cc9[n+]8C)cc7)ccc65)=NC4=N3)cc2)[nH]c2ccc(Cl)cc21.[I-].[I-].[I-].[I-]` [Compound 242], in assay [1], the “Staph log CFU/ml (logarithmic reduction value)” value is reported as 9.24 log CFU/ml and the “Staph μM (concentration corresponding to the logarithmic reduction)” value is on record as 0.5 μM. For the same compound, in assay [2], the “Min. Death conc.” value came to 120 µM and the Cell death was found to be 49.8%. In assay [3], the “Ecoli log CFU/ml (logarithmic reduction value)” value was 8.79 log CFU/ml and the “Ecoli μM (concentration corresponding to the logarithmic reduction)” value turned out to be 2.5 μM.
Regarding `C[n+]1c(-c2ccc(Oc3ccc4c(c3)C3=Nc5c6ccc(Oc7ccc(-c8[nH]c9cc(Cl)c(Cl)cc9[n+]8C)cc7)cc6c6[n]5[Co][n]5c(c7ccc(Oc8ccc(-c9[nH]c%10cc(Cl)c(Cl)cc%10[n+]9C)cc8)cc7c5=NC5=NC(=N6)c6cc(Oc7ccc(-c8[nH]c9cc(Cl)c(Cl)cc9[n+]8C)cc7)ccc65)=NC4=N3)cc2)[nH]c2cc(Cl)c(Cl)cc21.[I-].[I-].[I-].[I-]` [Compound 208], in assay [1], the “Staph log CFU/ml (logarithmic reduction value)” value was determined as 9.31 log CFU/ml and the “Staph μM (concentration corresponding to the logarithmic reduction)” value was 2 μM. Moreover, in assay [2], the “Min. Death conc.” value was determined as 20 µM and the Cell death came to 78.4%. Also, in assay [3], the “Ecoli log CFU/ml (logarithmic reduction value)” value is recorded as 8.79 log CFU/ml and the “Ecoli μM (concentration corresponding to the logarithmic reduction)” value was 1 μM.
For the compound `C[n+]1c(-c2ccc(Oc3ccc4c(c3)C3=Nc5c6ccc(Oc7ccc(-c8[nH]c9cc(Cl)cc(Cl)c9[n+]8C)cc7)cc6c6[n]5[Cu][n]5c(c7ccc(Oc8ccc(-c9[nH]c%10cc(Cl)cc(Cl)c%10[n+]9C)cc8)cc7c5=NC5=NC(=N6)c6cc(Oc7ccc(-c8[nH]c9cc(Cl)cc(Cl)c9[n+]8C)cc7)ccc65)=NC4=N3)cc2)[nH]c2cc(Cl)cc(Cl)c21.[I-].[I-].[I-].[I-]` [Compound 201], the “log reduction (dark toxicity)” value in assay [1] (dark, 0 min, at 10 μM) is recorded as 9.63. Besides, in assay [1], the “Staph log CFU/ml (logarithmic reduction value)” value worked out at 9.61 log CFU/ml and the “Staph μM (concentration corresponding to the logarithmic reduction)” value was 8 μM. In assay [2], the “optimal concentration to kill the cancer cells” value came out at 120 µM, the “Min. Death conc.” value amounted to 120 µM and the Cell death stood at 45.4%. In assay [2] (at the optimal concentration), the “cancer cells killed at the optimal concentration” value was determined as 45.4%. Moreover, in assay [3], the “Ecoli log CFU/ml (logarithmic reduction value)” value is 8.79 log CFU/ml and the “Ecoli μM (concentration corresponding to the logarithmic reduction)” value worked out at 12.5 μM.
Turning to `C[n+]1c(-c2ccc(Oc3ccc4c(c3)C3=Nc5c6ccc(Oc7ccc(-c8[nH]c9cc(Cl)c(Cl)cc9[n+]8C)cc7)cc6c6[n]5[Zn][n]5c(c7ccc(Oc8ccc(-c9[nH]c%10cc(Cl)c(Cl)cc%10[n+]9C)cc8)cc7c5=NC5=NC(=N6)c6cc(Oc7ccc(-c8[nH]c9cc(Cl)c(Cl)cc9[n+]8C)cc7)ccc65)=NC4=N3)cc2)[nH]c2cc(Cl)c(Cl)cc21.[I-].[I-].[I-].[I-]` [Compound 207], in assay [1], the “Staph log CFU/ml (logarithmic reduction value)” value was 9.31 log CFU/ml and the “Staph μM (concentration corresponding to the logarithmic reduction)” value was found to be 4 μM. In addition, in assay [2], the “Min. Death conc.” value came to 120 µM and the Cell death is 38.3%. Further, in assay [3], the “Ecoli log CFU/ml (logarithmic reduction value)” value is 8.79 log CFU/ml and the “Ecoli μM (concentration corresponding to the logarithmic reduction)” value turned out to be 2.5 μM.
Turning to `C[n+]1c(-c2ccc(Oc3ccc4c(c3)C3=Nc5c6ccc(Oc7ccc(-c8[nH]c9cc(Br)cc(Cl)c9[n+]8C)cc7)cc6c6[n]5[Co][n]5c(c7ccc(Oc8ccc(-c9[nH]c%10cc(Br)cc(Cl)c%10[n+]9C)cc8)cc7c5=NC5=NC(=N6)c6cc(Oc7ccc(-c8[nH]c9cc(Br)cc(Cl)c9[n+]8C)cc7)ccc65)=NC4=N3)cc2)[nH]c2cc(Br)cc(Cl)c21.[I-].[I-].[I-].[I-]` [Compound 234], in assay [1], the “Staph log CFU/ml (logarithmic reduction value)” value came to 9.25 log CFU/ml and the “Staph μM (concentration corresponding to the logarithmic reduction)” value came out at 0.5 μM. In assay [2], the “Min. Death conc.” value is 60 µM and the Cell death is 90.4%. Further, in assay [3], the “Ecoli log CFU/ml (logarithmic reduction value)” value is reported as 8.79 log CFU/ml and the “Ecoli μM (concentration corresponding to the logarithmic reduction)” value was determined as 2.5 μM.
As to `C[n+]1c(-c2ccc(Oc3ccc4c(c3)C3=Nc5c6ccc(Oc7ccc(-c8[nH]c9cc(Br)cc(Cl)c9[n+]8C)cc7)cc6c6[n]5[Cu][n]5c(c7ccc(Oc8ccc(-c9[nH]c%10cc(Br)cc(Cl)c%10[n+]9C)cc8)cc7c5=NC5=NC(=N6)c6cc(Oc7ccc(-c8[nH]c9cc(Br)cc(Cl)c9[n+]8C)cc7)ccc65)=NC4=N3)cc2)[nH]c2cc(Br)cc(Cl)c21.[I-].[I-].[I-].[I-]` [Compound 235], in assay [1], the “Staph log CFU/ml (logarithmic reduction value)” value is on record as 9.25 log CFU/ml and the “Staph μM (concentration corresponding to the logarithmic reduction)” value amounted to 10 μM. In addition, in assay [2], the “Min. Death conc.” value was 10 µM and the Cell death amounted to 34.8%. In assay [3], the “Ecoli log CFU/ml (logarithmic reduction value)” value turned out to be 8.79 log CFU/ml and the “Ecoli μM (concentration corresponding to the logarithmic reduction)” value turned out to be 12.5 μM.

The values above are taken from patent publication US20260193278A1, “NOVEL PHTHALOCYANINE COMPOUNDS AND THE USE THEREOF FOR THE TREATMENT OF DISEASES” (RHODES UNIVERSITY, priority 2022, published 2026).
